Where “and” joins values, the source holds several entries; their conditions need not be identical. Equal values may be shown once.
Experiments:
[1] = tested on: C32; assay: MTT cell viability assay, C32; assay type: cell-based, human; conditions: Homo sapiens, 72 h; for IC50: C32, MTT, mean ± SD
Protocol: (§1) Twelve compounds (2a-e, 3a-d and 4a-c) at a concentration range of 50–5000 μM were tested for their antiproliferative potential against four human cancer cell lines (A375—melanotic melanoma, C32—amelanotic melanoma, DU145—prostate cancer androgen-independent, MCF-7/WT—breast adenocarcinoma) and two normal cell lines: Chinese Hamster Ovary (CHO-K1) and immortalized human keratinocytes from histologically normal skin (HaCaT).
(§2) To determine the antiproliferative activity of newly synthesized compounds, the following cell lines were used: human melanotic melanoma cell line (A375), human amelanotic melanoma cell line (C32), human breast adenocarcinoma cell line (MCF-7/WT), human prostate cancer androgen-independent (DU145) and two normal cell lines: hamster ovarian (CHO-K1) and immortalized human keratinocytes from histologically normal skin (HaCaT). The cells were obtained from the cell line bank of the Department of Molecular and Cellular Biology, Wroclaw Medical University. A375, C32, MCF-7/WT, DU145 and HaCaT cells were grown in a monolayer cultured in Dulbecco’s Modified Eagle’s Medium (DMEM, Sigma-Aldrich, Poznań, Poland), supplemented with 10% of fetal bovine serum (FBS, Gibco, Paisley, UK) and 1% of antibiotics (penicillin/streptomycin, Sigma-Aldrich) and CHO-K1 were grown in HAM’s F-12 medium (Sigma-Aldrich), supplemented with 10% fetal bovine serum (FBS, Gibco) and 1% of antibiotics (penicillin/streptomycin, Sigma-Aldrich). Cell lines were cultured in the polystyrene flasks 25 or 75 cm^2 (Thermo Fisher Scientific, Waltham, MA, USA), which were stored in 37 °C and 5% CO2 in a humidified 95% atmosphere (SteriCult, Thermo Scientific, Alab). The cell medium was exchanged twice a week. The exponentially growing cells were used throughout the experiments. The cells were rinsed with phosphate-buffered saline (PBS, Sigma-Aldrich) and trypsinized by Trypsin-EDTA 0.25% solution (Sigma-Aldrich).
(§3) The influence of the compounds was performed in a monolayer culture on cancer and normal cells. Compounds were initially dissolved in DMSO; further dilutions of the compound were performed in Dulbecco’s Modified Eagle’s Medium supplemented with 10% FBS. Compounds were tested in a 50–5000 µM concentration range. In the in vitro experiments, the concentrations of DMSO in the final solution of the compounds were used 0.05%; 0.1%; 0.5%; 1%, respectively.
(§4) Cell viability was determined using the MTT colorimetric assay. All cell lines were seeded into 96-well plates to a density of 3 × 10^4 cells/well. After 24 h, the culture supernatants were removed and appropriate dilutions of compounds in the culture medium (200 µL/well) were added to the cells’ monolayer cultures and incubated for an additional 72 h. After 72 h of exposition to the compounds and the removal of the culture medium, cell viability was determined by reducing the yellow dye 3-(4,5-dimethyl-2-thiazol)-2,5-diphenyl-2H-tetrazolium bromide (MTT assay, Sigma Saint Louis, MO, USA; In Vitro Toxicology Assay) to a blue formazan product. The absorbance of the resulting solutions in three duplicate experiments was measured at the wavelength of 560 nm in a microplate reader (EnSpire, Perkin Elmer, Kraków, Poland). MTT assay is a colorimetric method that estimates the rate of metabolism in viable cells. Absorbance is directly proportional to the number of viable cells. All the experiments were performed three times and the mean absorbance values were calculated. The methodology for the evaluation of the growth of human cancer and normal cells was described previously. The cell viability in each group was expressed as a percentage of control (untreated) cells.

[2] = tested on: MCF-7/WT; assay: MTT cell viability assay, MCF-7/WT; assay type: cell-based; conditions: Homo sapiens, MCF7, 72 h, mean ± SD
Protocol: as §1, §2, §3, §4

[3] = tested on: CHO-K1; assay: MTT cell viability assay, CHO-K1; assay type: cell-based, Chinese Hamster; conditions: Cricetulus griseus; CHO-K1 normal cells, MTT, 72 h, mean ± SD
Protocol: as §1, §2, §3, §4

[4] = tested on: HaCaT; assay: MTT cell viability assay, HaCaT; assay type: cell-based, human; conditions: Homo sapiens; HaCaT normal cells, MTT, 72 h, mean ± SD
Protocol: as §1, §2, §3, §4

[5] = tested on: A375, C32, DU145, MCF-7/WT, CHO-K1 and HaCaT cell lines; assay: MTT cell viability assay, all six cell lines; assay type: cell-based; conditions: mean over the six cell lines; read-out: Mean A: the mean IC50 for the given compound
Protocol: as §1, §2, §3, §4

[6] = tested on: RPMI-8226; assay: NCI-60 screen, Leukemia RPMI-8226; assay type: cell-based, human; conditions: for Growth of Cells (%): RPMI-8226, 10^−5 M one dose
[7] = tested on: A549/ATCC; assay: NCI-60 screen, Non-Small Cell Lung Cancer A549/ATCC; assay type: cell-based, human; conditions: for Growth of Cells (%): 10^−5 M one dose
[8] = tested on: NCI-H322M; assay: NCI-60 screen, Non-Small Cell Lung Cancer NCI-H322M; assay type: cell-based, human; conditions: for Growth of Cells (%): 10^−5 M one dose
[9] = tested on: HCC-2998; assay: NCI-60 screen, Colon Cancer HCC-2998; assay type: cell-based, human; conditions: for Growth of Cells (%): HCC-2998, 10^−5 M one dose
[10] = tested on: SF-295; assay: NCI-60 screen, CNS Cancer SF-295; assay type: cell-based, human; conditions: for Growth of Cells (%): SF-295, 10^−5 M one dose
[11] = tested on: MALME-3M; assay: NCI-60 screen, Melanoma MALME-3M; assay type: cell-based, human; conditions: for Growth of Cells (%): 10^−5 M one dose
[12] = tested on: OVCAR-3; assay: NCI-60 screen, Ovarian Cancer OVCAR-3; assay type: cell-based, human; conditions: for Growth of Cells (%): OVCAR-3, 10^−5 M one dose
[13] = tested on: RXF 393; assay: NCI-60 screen, Renal Cancer RXF 393; assay type: cell-based, human; conditions: for Growth of Cells (%): RXF 393, 10^−5 M one dose
[14] = MTT cell viability assay, HaCaT; assay type: cell-based, human; conditions: HaCaT keratinocytes (normal cell line), HaCaT human keratinocytes, 50 µM
Protocol: as §1, §2, §3, §4

[15] = tested on: SK-MEL-5; assay: NCI-60 screen, Melanoma SK-MEL-5; assay type: cell-based, human; conditions: for Growth of Cells (%): SK-MEL-5, 10^−5 M one dose
[16] = tested on: M14; assay: cells; conditions: Homo sapiens
[17] = Homo sapiens, five doses 10^−4–10^−8 M
[18] = Homo sapiens, HCC-2998, five doses 10^−4–10^−8 M
[19] = Homo sapiens, SF-295, five doses 10^−4–10^−8 M

## O=c1[nH]c(C(F)(F)F)nc2c1sc(=S)n2-c1ccccc1 [Compound 2b, 3-phenyl-2-thioxo-5-(trifluoromethyl)-2,3-dihydro[1, 3]thiazolo[4,5-d]pyrimidin-7(6H)-one]
[1]
  IC50: 496 ± 20.4 µM
[2]
  IC50: 557 ± 22.9 µM
[3]
  IC50: 319 ± 13.1 µM
[4]
  IC50: 712 ± 29.3 µM
[5]
  IC50: 468 µM
[6]
  Growth of Cells (%): 108.14%
[7]
  Growth of Cells (%): 103.88%
[8]
  Growth of Cells (%): 128.80%
[9]
  Growth of Cells (%): 116.48%
[10]
  Growth of Cells (%): 116.63%
[11]
  Growth of Cells (%): 121.70%
[12]
  Growth of Cells (%): 110.35%
[13]
  Growth of Cells (%): 95.34%

## FC(F)(F)c1nc(Cl)c2sc(=S)n(-c3ccccc3)c2n1 [Compound 3b, 7-chloro-3-phenyl-5-(trifluoromethyl)[1, 3]thiazolo[4,5-d]pyrimidine-2(3H)-thione]
[1]
  IC50: 24.4 ± 0.5 µM
[1]; C32 amelanotic melanoma, 50 µM
  viability at 50 µM: 20%
[2]
  IC50: 49 ± 1 µM
[3]
  IC50: 75.5 ± 1.6 µM
[14]
  viability at 72 h, 50 µM: 20%
[4]
  IC50: 33.5 ± 0.7 µM
[5]
  IC50: 43.8 µM
[6]; Homo sapiens, RPMI-8226, five doses 10^−4–10^−8 M
  GI50: 2.51 µM
[6]; Homo sapiens, RPMI-8226, five doses 10^−4–10^−8 M, read-out: log LC50 (the source's name) (converted)
  CC50: > 100 µM
[6]
  Growth of Cells (%): 44.45%
[6]; RPMI-8226, five doses 10^−4–10^−8 M
  log TGI: −5.11 log M
[7]
  Growth of Cells (%): 91.16%
[7]; [17]
  GI50: 7.59 µM
  LC50: 53.7 µM
[7]; five doses 10^−4–10^−8 M
  log TGI: −4.66 log M
[8]
  Growth of Cells (%): 101.54%
[8]; [17]
  GI50: 3.8 µM
[8]; Homo sapiens, five doses 10^−4–10^−8 M, read-out: log LC50 (the source's name) (converted)
  CC50: 38 µM
[8]; five doses 10^−4–10^−8 M
  log TGI: −4.90 log M
[9]
  Growth of Cells (%): −26.98% and −26.89%
[9]; HCC-2998, five doses 10^−4–10^−8 M
  log TGI: −5.31 log M
[9]; [18]
  GI50: 2.24 µM
  LC50: 12.9 µM
[10]; [19]
  GI50: 12.3 µM
  LC50: 52.5 µM
[10]; SF-295, five doses 10^−4–10^−8 M
  log TGI: −4.59 log M
[11]
  Growth of Cells (%): 40.72%
[11]; [17]
  GI50: 2.29 µM
  LC50 (concentration causing 50% cell kill): 8.13 µM
[11]; five doses 10^−4–10^−8 M
  log TGI: −5.37 log M
[15]; Homo sapiens, SK-MEL-5, five doses 10^−4–10^−8 M
  GI50: 2.19 µM
[15]; Homo sapiens, SK-MEL-5, five doses 10^−4–10^−8 M, read-out: log LC50 (the source's name) (converted)
  CC50: 12.3 µM
[15]
  Growth of Cells (%): 81.95%
[15]; SK-MEL-5, five doses 10^−4–10^−8 M
  log TGI: −5.31 log M
[12]; Homo sapiens, OVCAR-3, five doses 10^−4–10^−8 M
  GI50: 1.91 µM
[12]; Homo sapiens, OVCAR-3, five doses 10^−4–10^−8 M, read-out: log LC50 (the source's name) (converted)
  CC50: 6.03 µM
[12]
  Growth of Cells (%): −41.27%
[12]; OVCAR-3, five doses 10^−4–10^−8 M
  log TGI: −5.47 log M
[13]; Homo sapiens, RXF 393, five doses 10^−4–10^−8 M
  GI50: 1.82 µM
[13]; Homo sapiens, RXF 393, five doses 10^−4–10^−8 M, read-out: log LC50 (the source's name) (converted)
  CC50: 6.17 µM
[13]
  Growth of Cells (%): −16.27%
[13]; RXF 393, five doses 10^−4–10^−8 M
  log TGI: −5.47 log M
[16]; M14, read-out: log GI50 (converted)
  GI50: 2 µM
[16]; M14, read-out: log LC50 (converted)
  CC50: 8.32 µM

## CCNc1nc(C(F)(F)F)nc2c1sc(=S)n2-c1ccccc1 [Compound 4b, 7-(ethylamino)-3-phenyl-5-(trifluoromethyl)[1, 3]thiazolo[4,5-d]pyrimidine-2(3H)-thione]
[1]
  IC50: 356 ± 15.2 µM
[2]
  IC50: 686 ± 29.3 µM
[3]
  IC50: 237 ± 10.1 µM
[4]
  IC50: 730 ± 31.1 µM
[5]
  IC50: 476 µM
[7]
  Growth of Cells (%): 74.36%
[9]
  Growth of Cells (%): 115.06%
[10]
  Growth of Cells (%): 94.05%
[11]
  Growth of Cells (%): 144.23%
[15]
  Growth of Cells (%): 87.63%
[12]
  Growth of Cells (%): 106.99%
[13]
  Growth of Cells (%): 100.09%

## Fc1ccc(CNc2nc(C(F)(F)F)nc3c2sc(=S)n3-c2ccccc2)cc1 [Compound 4c]
[1]
  IC50: 485 ± 21.2 µM
[2]
  IC50: 568 ± 24.8 µM
[3]
  IC50: 549 ± 24 µM
[4]
  IC50: 565 ± 24.7 µM
[5]
  IC50: 485 µM
[6]
  Growth of Cells (%): 104.96%
[7]
  Growth of Cells (%): 98.32%
[9]
  Growth of Cells (%): 118.24%
[10]
  Growth of Cells (%): 91.10%
[11]
  Growth of Cells (%): 106.31%
[15]
  Growth of Cells (%): 105.71%
[12]
  Growth of Cells (%): 111.62%
[13]
  Growth of Cells (%): 104.44%
